Key:
[1] = tested on: rifampicin-resistant strain of a Gram-negative Kosakonia sp. bacterium; experiment: Desiccation resistance (viability, CFU) of Kosakonia sp. cells mixed with protectant agents and dried in 96-well plates; format: cell-based; settings: after 5 days and 7 days of desiccation stress; protectants at 1% or 0.5% (whole broth and cell pellet undiluted or 2x dilution)
Source text: A rifampicin-resistant strain of a Gram-negative Kosakonia sp. bacterium was mixed with water (untreated control or “UTC”), trehalose, carboxymethylcellulose (“CMC”), methylcellulose (“MC”), extracellular polymeric substance from Parachlorella kessleri Accession No. NCMA 202103001 (“EPS”), sodium alginate (“Na-Alginate”), Parachlorella kessleri Accession No. NCMA 202103001 whole broth (“3001 Broth”), or Parachlorella kessleri Accession No. NCMA 202103001 cell pellet after centrifugation (“3001 Pellet”) in 96-well plates. Each of the protectant agents was added undiluted (i.e., at a 1× dilution) or at a 2× dilution (i.e., at […] to 1 part protectant) for whole broth and cell pellets or at a concentration of 1% (i.e., 1 g/100 mL) or 0.5% (i.e., 0.5 g/100 mL) for all other protectants. […]
The liquid medium in the plates was allowed to dry at room temperature inside a desiccation chamber for several days to create desiccation stress in the bacterial cell cultures. […] The bacterial cells were evaluated for survival and growth after 5 days of desiccation stress and after 7 days of desiccation stress.
The colony forming unit (CFU) data in these figures were generated by counting the number of colonies on each spot (see spots on representative plates shown in FIGS. 2A, 2B, and 2C) and using the following formula for quantifying viable cell density: […]

[2] = tested on: co-culture of Gram-negative Kosakonia pseudosacchari strain JM-387 and Pseudomonas aylmerense strain S1E40; experiment: Desiccation resistance (viability, CFU) of a bacterial co-culture mixed with protectant agents; format: cell-based; settings: after 3, 5 and 7 days of desiccation stress, protectants at 1% (whole broth and cell pellet undiluted)

OC[C@H]1O[C@H](O[C@H]2O[C@H](CO)[C@@H](O)[C@H](O)[C@H]2O)[C@H](O)[C@@H](O)[C@@H]1O [Trehalose]
protective effect on the Kosakonia sp. cells (viability after desiccation stress) [1]: demonstrated a protective effect
protective effect on the Gram-negative bacterial cells (viability after desiccation stress) [2]: demonstrated a protective effect

— patent US20230042599A1, “CELLULOSIC COMPOUNDS AND AGRICULTURAL USES THEREOF” (HELIAE DEVELOPMENT, LLC, priority 2021, published 2023)
